According to PubChem BioAssay (NCI):
“And” between values parts separate entries of the source, which are not always exact repeats. Identical values can stand only once.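 Step 1: Grow cells in 96-well plates. Step 2: Expose to compound for 48 hours at 5 concentrations. Step 3: Interpolate endpoints linearly; if unreached, use highest concentration. Abbreviation: GI50, concentration required for 50% inhibition of growth. TGI: concentration producing complete growth inhibition.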

Columns and labels:
Test in all cases: NCI tumour cell line growth inhibition, 48 h
K-562 leukemia = tested on: K-562 leukemia
MDA-MB-231 breast = tested on: MDA-MB-231 breast
ACHN renal = tested on: ACHN renal
HS 578T breast = tested on: HS 578T breast
NCI-H522 lung = tested on: NCI-H522 lung
SK-MEL-5 melanoma = tested on: SK-MEL-5 melanoma
MALME-3M melanoma = tested on: MALME-3M melanoma
CAKI-1 renal = tested on: CAKI-1 renal
SW-620 colon = tested on: SW-620 colon
UACC-257 melanoma = tested on: UACC-257 melanoma

**Q.** Which results are given for `O=[N+]([O-])c1ccccc1N=Nc1c(O)[nH]c2c(Cl)cc(Cl)cc12`?
**A.** TGI (K-562 leukemia): > 100 µM; TGI (MDA-MB-231 breast): > 69.3 µM; TGI (ACHN renal): 46.8 µM; TGI (HS 578T breast): 53 µM; TGI (NCI-H522 lung): > 100 µM; TGI (SK-MEL-5 melanoma): > 100 µM; TGI (MALME-3M melanoma): > 95.7 µM; TGI (CAKI-1 renal): > 91.8 µM; TGI (SW-620 colon): > 100 µM; TGI (UACC-257 melanoma): > 100 µM

**Q.** Which TGI (K-562 leukemia) does the source give for `CCCCCCCCSC1=C(Cl)C(=O)C(OC)=C(OC)C1=O` here?
**A.** Its TGI is > 100 µM.

**Q.** What about the TGI (MDA-MB-231 breast) of the same compound?
**A.** Its TGI is 29 µM.

**Q.** What about the TGI (ACHN renal) of the same compound?
**A.** The TGI was 23 µM.

**Q.** And the TGI (HS 578T breast)?
**A.** The TGI was 66.6 µM.

**Q.** What about the TGI (NCI-H522 lung) of the same compound?
**A.** Its TGI is 14.4 µM.

**Q.** And the TGI (SK-MEL-5 melanoma)?
**A.** Its TGI is 18.6 µM.

**Q.** And the TGI (MALME-3M melanoma)?
**A.** Its TGI is 21.8 µM.

**Q.** What about the TGI (CAKI-1 renal) of the same compound?
**A.** The TGI was 34.7 µM.

**Q.** And the TGI (SW-620 colon)?
**A.** Its TGI is 84 µM.

**Q.** What about the TGI (UACC-257 melanoma) of the same compound?
**A.** The TGI was 21.4 µM.

**Q.** Which TGI (K-562 leukemia) does the source give for `CCn1cc(-c2ccnc3[nH]c(-c4cccc(CN(C)C)c4)cc23)c(-c2ccc(NC(=O)N(C)C)cc2)n1` here?
**A.** The TGI was 17.2 µM and 2.96 µM.

**Q.** And the GI50 (MDA-MB-231 breast)?
**A.** Its GI50 is 3.52 µM and 2.95 µM.

**Q.** What about the TGI (MDA-MB-231 breast) of the same compound?
**A.** The TGI was 19.8 µM and > 10 µM.

**Q.** And the GI50 (ACHN renal)?
**A.** The GI50 was 1.73 µM and 2.45 µM.

**Q.** And the TGI (ACHN renal)?
**A.** The TGI was 10.2 µM and > 10 µM.

**Q.** And the GI50 (HS 578T breast)?
**A.** The GI50 was 1.52 µM and 1.2 µM.

**Q.** And the TGI (HS 578T breast)?
**A.** The TGI was 9.99 µM and 6.9 µM.

**Q.** What about the TGI (NCI-H522 lung) of the same compound?
**A.** Its TGI is 20 µM and > 10 µM.

**Q.** And the GI50 (SK-MEL-5 melanoma)?
**A.** The GI50 was 6.55 µM.

**Q.** And the TGI (SK-MEL-5 melanoma)?
**A.** Its TGI is 23.6 µM.

**Q.** And the GI50 (MALME-3M melanoma)?
**A.** Its GI50 is 12 µM and > 10 µM.

**Q.** What about the TGI (MALME-3M melanoma) of the same compound?
**A.** Its TGI is 29.3 µM and > 10 µM.

**Q.** What about the GI50 (CAKI-1 renal) of the same compound?
**A.** Its GI50 is 3.36 µM and 1.17 µM.

**Q.** What about the TGI (CAKI-1 renal) of the same compound?
**A.** The TGI was 18.9 µM and > 10 µM.

**Q.** What about the GI50 (SW-620 colon) of the same compound?
**A.** Its GI50 is 0.566 µM and 0.533 µM.

**Q.** What about the TGI (SW-620 colon) of the same compound?
**A.** The TGI was 13.7 µM and > 10 µM.

**Q.** What about the GI50 (UACC-257 melanoma) of the same compound?
**A.** Its GI50 is 4.76 µM and > 10 µM.

**Q.** And the TGI (UACC-257 melanoma)?
**A.** The TGI was 21.7 µM and > 10 µM.

**Q.** Which results are given for `O=c1[nH]c(-c2cccc(F)c2)cc2cc(F)ccc12`?
**A.** GI50 (K-562 leukemia): 0.0698 µM; TGI (K-562 leukemia): > 100 µM; GI50 (MDA-MB-231 breast): 2.37 µM; TGI (MDA-MB-231 breast): > 100 µM; GI50 (ACHN renal): 0.771 µM; TGI (ACHN renal): > 100 µM; GI50 (HS 578T breast): 0.381 µM; TGI (HS 578T breast): > 72.8 µM; GI50 (NCI-H522 lung): 0.334 µM; TGI (NCI-H522 lung): > 100 µM; GI50 (SK-MEL-5 melanoma): 0.334 µM; TGI (SK-MEL-5 melanoma): > 100 µM; GI50 (MALME-3M melanoma): > 100 µM; TGI (MALME-3M melanoma): > 100 µM; GI50 (CAKI-1 renal): 0.264 µM; TGI (CAKI-1 renal): > 100 µM; GI50 (SW-620 colon): 0.174 µM; TGI (SW-620 colon): > 100 µM; GI50 (UACC-257 melanoma): > 100 µM; TGI (UACC-257 melanoma): > 100 µM

**Q.** With `CCOC(=O)c1c(C)c2c(n1Cc1ccccc1)CSCC2=O` as the compound, how does the GI50 (K-562 leukemia) read?
**A.** The GI50 was 21.7 µM.

**Q.** What about the TGI (K-562 leukemia) of the same compound?
**A.** The TGI was > 100 µM.

**Q.** And the GI50 (MDA-MB-231 breast)?
**A.** The GI50 was 14.7 µM.

**Q.** And the TGI (MDA-MB-231 breast)?
**A.** The TGI was 51.2 µM.

**Q.** And the GI50 (ACHN renal)?
**A.** The GI50 was 18.8 µM.

**Q.** What about the TGI (ACHN renal) of the same compound?
**A.** The TGI was > 100 µM.

**Q.** And the GI50 (HS 578T breast)?
**A.** Its GI50 is 10.8 µM.

**Q.** What about the TGI (HS 578T breast) of the same compound?
**A.** Its TGI is 53.3 µM.

**Q.** What about the GI50 (NCI-H522 lung) of the same compound?
**A.** The GI50 was 14.8 µM.

**Q.** What about the TGI (NCI-H522 lung) of the same compound?
**A.** The TGI was 58.8 µM.

**Q.** And the GI50 (SK-MEL-5 melanoma)?
**A.** Its GI50 is 11.6 µM.

**Q.** And the TGI (SK-MEL-5 melanoma)?
**A.** The TGI was 23.9 µM.

**Q.** What about the GI50 (MALME-3M melanoma) of the same compound?
**A.** The GI50 was 17.5 µM.

**Q.** What about the TGI (MALME-3M melanoma) of the same compound?
**A.** The TGI was 49.2 µM.

**Q.** And the GI50 (CAKI-1 renal)?
**A.** The GI50 was 11 µM.

**Q.** And the TGI (CAKI-1 renal)?
**A.** The TGI was 52.2 µM.

**Q.** What about the GI50 (SW-620 colon) of the same compound?
**A.** Its GI50 is 17.4 µM.

**Q.** And the TGI (SW-620 colon)?
**A.** Its TGI is 47 µM.

**Q.** And the GI50 (UACC-257 melanoma)?
**A.** The GI50 was 26.9 µM.

**Q.** What about the TGI (UACC-257 melanoma) of the same compound?
**A.** The TGI was 94.1 µM.
